From patent publication US10106556B2, “Heterocyclic compound” (TAKEDA PHARMACEUTICAL COMPANY LIMITED, priority 2015, dated 2018)

What follows are compounds tested against T1, His-hMAGL (recombinant polyhistidine tagged human MAGL protein) (Homo sapiens, UniProt Q99685) (assay: Measurement of MAGL inhibitory activity (arachidonic acid production from 2-arachidonylglycerol, RapidFire-mass spectrometry)). Conditions: MAGL inhibitory rate at 10 μM test compound; 60 min preincubation with His-hMAGL, 2-arachidonylglycerol substrate, 10 min reaction at room temperature.
T1 construct: made in house; host or cells: E. coli BL21(DE3)
T1 sequence (Q99685 1-303): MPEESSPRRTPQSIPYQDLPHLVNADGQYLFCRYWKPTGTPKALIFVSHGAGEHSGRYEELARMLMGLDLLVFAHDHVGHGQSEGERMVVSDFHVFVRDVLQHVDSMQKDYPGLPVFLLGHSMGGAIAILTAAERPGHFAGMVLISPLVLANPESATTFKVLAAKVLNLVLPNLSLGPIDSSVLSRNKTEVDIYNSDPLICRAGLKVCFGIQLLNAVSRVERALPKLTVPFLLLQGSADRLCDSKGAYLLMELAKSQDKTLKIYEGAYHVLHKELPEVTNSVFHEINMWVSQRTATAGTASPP
Type: biochemical
Method in brief: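 Recombinant His-tagged human MAGL converted 2-arachidonylglycerol to arachidonic acid. Reactions received acetonitrile with 3 μM arachidonic acid-d8 as internal standard, and product was quantified by RapidFire SPE (C4) with negative-mode SRM mass spectrometry. Percent inhibition was calculated against compound-free and enzyme-free controls.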

SMILES	inhibition at 10 µM
O=C1COc2cc(F)c(C(=O)N3CC(COc4ccc(F)c(C(F)(F)F)c4)C3)cc2N1 [Example 278, 7-fluoro-6-((3-((4-fluoro-3-(trifluoromethyl)phenoxy)methyl)azetidin-1-yl)carbonyl)-2H-1,4-benzoxazin-3(4H)-one]	103%
O=C1COc2cc(F)c(C(=O)N3CCC(COc4ccccc4)CC3)cc2N1 [Example 285, 7-fluoro-6-((4-(phenoxymethyl)piperidin-1-yl)carbonyl)-2H-1,4-benzoxazin-3(4H)-one]	98%
O=C1COc2ncc(C(=O)N3CCC(COc4cc(Cl)ccc4Cl)CC3)cc2N1 [Example 18, 7-((4-((2,5-dichlorophenoxy)methyl)piperidin-1-yl)carbonyl)-1H-pyrido[2,3-b][1,4]oxazin-2(3H)-one]	100%
O=C1COc2ncc(C(=O)N3CCC(COc4ccccc4Cl)CC3)cc2N1 [Example 7, 7-((4-((2-chlorophenoxy)methyl)piperidin-1-yl)carbonyl)-1H-pyrido[2,3-b][1,4]oxazin-2(3H)-one]	100%
O=C1COc2cc(F)c(C(=O)N3CC(COc4ccc(-c5ccc(F)cn5)cc4F)C3)cc2N1 [Example 228, 7-fluoro-6-((3-((2-fluoro-4-(5-fluoropyridin-2-yl)phenoxy)methyl)azetidin-1-yl)carbonyl)-2H-1,4-benzoxazin-3(4H)-one]	94%
O=C1COc2ccc(C(=O)N3CC(COc4ccc(F)cc4Cl)C3)cc2N1 [Example 78, 6-((3-((2-chloro-4-fluorophenoxy)methyl)azetidin-1-yl)carbonyl)-2H-1,4-benzoxazin-3(4H)-one]	100%
Cc1cc(-c2cc(Cl)ccc2OCC2CN(C(=O)c3cc4c(cc3F)OCC(=O)N4)C2)ccn1 [Example 193, 6-((3-((4-chloro-2-(2-methylpyridin-4-yl)phenoxy)methyl)azetidin-1-yl)carbonyl)-7-fluoro-2H-1,4-benzoxazin-3(4H)-one]	102%
O=C1COc2cc(F)c(C(=O)N3CC(COc4ccc(-c5ccncc5)cc4F)C3)cc2N1 [Example 239, 7-fluoro-6-((3-((2-fluoro-4-(pyridin-4-yl)phenoxy)methyl)azetidin-1-yl)carbonyl)-2H-1,4-benzoxazin-3(4H)-one]	100%
O=C1COc2cc(F)c(C(=O)N3CC(COc4cccc5nccnc45)C3)cc2N1 [Example 139, 7-fluoro-6-((3-((quinoxalin-5-yloxy)methyl)azetidin-1-yl)carbonyl)-2H-1,4-benzoxazin-3(4H)-one]	92%
Cc1nc2c(cc1C(=O)N1CCC(COc3ccc(F)cc3Cl)CC1)NC(=O)CO2 [Example 145, 7-((4-((2-chloro-4-fluorophenoxy)methyl)piperidin-1-yl)carbonyl)-6-methyl-1H-pyrido[2,3-b][1,4]oxazin-2(3H)-one]	88%
Cc1cccnc1-c1ccc(OCC2CN(C(=O)c3cc4c(cc3F)OCC(=O)N4)C2)c(F)c1 [Example 231, 7-fluoro-6-((3-((2-fluoro-4-(3-methylpyridin-2-yl)phenoxy)methyl)azetidin-1-yl)carbonyl)-2H-1,4-benzoxazin-3(4H)-one]	100%
O=C1COc2cc(F)c(C(=O)N3CC(F)(COc4ccc(F)cc4Cl)C3)cc2N1 [Example 96, 6-((3-((2-chloro-4-fluorophenoxy)methyl)-3-fluoroazetidin-1-yl)carbonyl)-7-fluoro-2H-1,4-benzoxazin-3(4H)-one]	100%
Cc1cncc(-c2ccc(OCC3CN(C(=O)c4cc5c(cc4F)OCC(=O)N5)C3)c(F)c2)c1 [Example 236, 7-fluoro-6-((3-((2-fluoro-4-(5-methylpyridin-3-yl)phenoxy)methyl)azetidin-1-yl)carbonyl)-2H-1,4-benzoxazin-3(4H)-one]	99%
O=C(c1cc2[nH]c(=O)oc2cc1F)N1CCC(COc2ccc(F)cc2Cl)CC1 [Example 101, 5-((4-((2-chloro-4-fluorophenoxy)methyl)piperidin-1-yl)carbonyl)-6-fluoro-1,3-benzoxazol-2(3H)-one]	99%
Cc1ccncc1-c1cc(Cl)ccc1OCC1CN(C(=O)c2cc3c(cc2F)OCC(=O)N3)C1 [Example 203, 6-((3-((4-chloro-2-(4-methylpyridin-3-yl)phenoxy)methyl)azetidin-1-yl)carbonyl)-7-fluoro-2H-1,4-benzoxazin-3(4H)-one]	103%
O=C1COc2cc(F)c(C(=O)N3CC(COc4ccc(Cl)cc4-c4cnc(C(F)(F)F)nc4)C3)cc2N1 [Example 222, 6-((3-((4-chloro-2-(2-(trifluoromethyl)pyrimidin-5-yl)phenoxy)methyl)azetidin-1-yl)carbonyl)-7-fluoro-2H-1,4-benzoxazin-3(4H)-one]	101%
COC(=O)c1ccc(OCC2CCN(C(=O)c3cc4c(cc3F)OCC(=O)N4)CC2)c(Cl)c1 [Example 84, methyl-3-chloro-4-((1-((7-fluoro-3-oxo-3,4-dihydro-2H-1,4-benzoxazin-6-yl)carbony)piperidin-4-yl)methoxy)benzoate]	97%
O=C1COc2ccc(C(=O)N3CCC(COc4ccccc4Cl)CC3)cc2N1 [Example 24, 6-((4-((2-chlorophenoxy)methyl)piperidin-1-yl)carbonyl)-2H-1,4-benzoxazin-3 (4H)-one]	101%

More lines, now with the values ahead:

inhibition at 10 µM	SMILES
101%	O=C1COc2cc(F)c(C(=O)N3CC(COc4ccc(OC(F)F)cc4)C3)cc2N1 [Example 270, 6-((3-((4-(difluoromethoxy)phenoxy)methyl)azetidin-1-yl)carbonyl)-7-fluoro-2H-1,4-benzoxazin-3(4H)-one]
98%	O=C1COc2cc(F)c(C(=O)N3CC(COc4ccc(Cl)cc4)C3)cc2N1 [Example 111, 6-((3-((4-chlorophenoxy)methyl)azetidin-1-yl)carbonyl)-7-fluoro-2H-1,4-benzoxazin-3(4H)-one]
102%	O=C1COc2cc(F)c(C(=O)N3CC(OCc4ccc(Cl)cc4)C3)cc2N1 [Example 343, 6-((3-((4-chlorobenzyl)oxy)azetidin-1-yl)carbonyl)-7-fluoro-2H-1,4-benzoxazin-3(4H)-one]
101%	Cc1cc(F)ccc1OCC1CN(C(=O)c2cc3c(cc2F)OCC(=O)N3)C1 [Example 120, 7-fluoro-6-((3-((4-fluoro-2-methylphenoxy)methyl)azetidin-1-yl)carbonyl)-2H-1,4-benzoxazin-3(4H)-one]
100%	O=C1COc2cc(F)c(C(=O)N3CC(COc4ccc(Cl)cc4Br)C3)cc2N1 [Example 185, 6-((3-((2-bromo-4-chlorophenoxy)methyl)azetidin-1-yl)carbonyl)-7-fluoro-2H-1,4-benzoxazin-3(4H)-one]
92%	CS(=O)(=O)c1ccc(COC2CN(C(=O)c3cc4c(cc3F)OCC(=O)N4)C2)cc1 [Example 337, 7-fluoro-6-((3-((4-(methylsulfonyl)benzyl)oxy)azetidin-1-yl)carbonyl)-2H-1,4-benzoxazin-3(4H)-one]
100%	CC(C)c1ccccc1OCC1CN(C(=O)c2cc3c(cc2F)OCC(=O)N3)C1 [Example 160, 7-fluoro-6-((3-((2-isopropylphenoxy)methyl)azetidin-1-yl)carbonyl)-2H-1,4-benzoxazin-3(4H)-one]
102%	O=C1COc2cc(F)c(C(=O)N3CC(COc4cccc(Cl)c4Cl)C3)cc2N1 [Example 123, 6-((3-((2,3-dichlorophenoxy)methyl)azetidin-1-yl)carbonyl)-7-fluoro-2H-1,4-benzoxazin-3(4H)-one]
100%	CC(Oc1c(F)cccc1F)C1CN(C(=O)c2cc3c(cc2F)OCC(=O)N3)C1 (centres unmarked) [Example 306, 6-((3-(1-(2,6-difluorophenoxy)ethyl)azetidin-1-yl)carbonyl)-7-fluoro-2H-1,4-benzoxazin-3(4H)-one]
103%	COc1cc(Cl)ccc1OCC1CN(C(=O)c2cc3c(cc2F)OCC(=O)N3)C1 [Example 115, 6-((3-((4-chloro-2-methoxyphenoxy)methyl)azetidin-1-yl)carbonyl)-7-fluoro-2H-1,4-benzoxazin-3(4H)-one]
101%	O=C1COc2cc(F)c(C(=O)N3CC(OCc4cccc(Cl)c4)C3)cc2N1 [Example 336, 6-((3-((3-chlorobenzyl)oxy)azetidin-1-yl)carbonyl)-7-fluoro-2H-1,4-benzoxazin-3(4H)-one]
101%	O=C1COc2cc(F)c(C(=O)N3CC(COc4ccc(F)c(Cl)c4)C3)cc2N1 [Example 131, 6-((3-((3-chloro-4-fluorophenoxy)methyl)azetidin-1-yl)carbonyl)-7-fluoro-2H-1,4-benzoxazin-3(4H)-one]
100%	N#Cc1ccc(OCC2CN(C(=O)c3cc4c(cc3F)OCC(=O)N4)C2)cc1Cl [Example 138, 2-chloro-4-((1-((7-fluoro-3-oxo-3,4-dihydro-2H-1,4-benzoxazin-6-yl)carbonyl)azetidin-3-yl)methoxy)benzonitrile]

Same assay, conditions: MAGL inhibitory rate at 10 μM test compound; 60 min preincubation with His-hMAGL, 2-arachidonylglycerol substrate, 10 min reaction at room temperature; 10 µM

% inhibition (10 μM)	SMILES
102%	CC(Oc1cc(F)cc(F)c1)C1CN(C(=O)c2cc3c(cc2F)OCC(=O)N3)C1 (centres unmarked) [Example 315, 6-((3-(1-(3,5-difluorophenoxy)ethyl)azetidin-1-yl)carbonyl)-7-fluoro-2H-1,4-benzoxazin-3(4H)-one]
